Values of other authors in patent US20160244831A9, “Genetic Alterations Associated with Autism and the Autistic Phenotype and Methods of Use Thereof for the Diagnosis and Treatment of Autism” (The Children's Hospital of Philadelphia, priority 2011, published 2016).

Experiments:
[1] = individuals exposed between days 24-28 post-fertilization
[2] = tested on: RANBP1 mRNA
[3] = at levels that are highly teratogenic in humans

SMILES	rate of ASD [1]	expression of RANBP1 mRNA [2]	teratogenicity in animals [3]
O=C1CCC(N2C(=O)c3ccccc3C2=O)C(=O)N1 (stereo not shown) [Thalidomide]	27%	decreased expression	lack of teratogenicity
CCCC(CCC)C(=O)O [Valproate, Valproic acid]	–	decreased expression	–
